Columns and labels:
[1] = system: axonal protein synthesis in DRG neurons; experiment: Puromycinylation assay of axonal protein synthesis; assay type: cell-based, rat; conditions: compared to untreated and 168-189 peptide-treated cultures
Procedure: Puromycinylation assay. To visualize newly synthesized proteins in cultured neurons, the inventors used the Click-iT® Plus OPP Protein Synthesis Assay Kit per manufacturer's instructions (Invitrogen/Life Technologies). Briefly, 3 DIV cultures were incubated with 20 μM0-propargyl-puromycin (OPP) for 30 min at 37° C. OPP labeled proteins were detected by crosslinking with Alexa Fluor-594 picolyl azide molecule. Coverslips were then mounted with Prolong Gold Antifade (Invitrogen) and imaged with Leica DMI6000 epifluorescent microscope as above. ImageJ was used to quantify the Puromycinylation signals in distal axons and cell bodies.

C9ORF72 iPS-MN axons = experiment: OPP labeling of local protein synthesis in iPS-MN axons; assay type: cell-based, human; conditions: axonal-exclusive application of 20 μM peptide
Excerpt: Formation of G3BP1-positive RNP condensates is strongly associated with repressed RNA translation, see Sahoo, P. K. et al. A Ca^2+ dependent switch activates axonal casein kinase 2α translation and drives G3BP1 granule disassembly for axon regeneration. Curr. Biol. 30, 4882-4895.e6 (2020), and altered mRNA transport, see Liao, Y. C. et al. RNA granules hitchhike on lysosomes for long-distance transport, using Annexin All as a molecular tether. Cell 179, 147-164.e20 (2019), leading to reduced protein synthesis, see Sahoo, P. K. et al. Axonal G3BP1 stress granule protein limits axonal mRNA translation and nerve regeneration. Nat. Commun. 9, 1-14 (2018). […] By quantifying OPP puncta density within in vitro NMJs, we identified robust protein synthesis within control co-cultures, while protein synthesis in TDPΔNLS NMJs was severely impaired (FIG. 19 3k-l). […] Unpaired-t-test, two-sided ****p<0.0001. c Images and d-f quantification of NFH, pTDP-43 and G3BP1 and their colocalization in C9ORF72 iPS-MN axons either treated or not with G3BP1 peptide. Quantifications of G3BP1 particle density (d), G3BP1-pTDP-43 coloc-particle density (e) and G3BP1-pTDP-43 coloc-particle size (f) from C9ORF72 and control iPS-MN axons, either treated or not with G3BP1 peptide. […] One-way-ANOVA with Holm-Sidak correction. […], ****p<0.0001. i Images and j quantification of OPP puncta density in control or ΔNLS MN axons. […]

YGNKKNNNQNNN-VVEPEPEPEPEPEPEPVSE [G3BP1 190-208 peptide]
puromycin incorporation in DRG axons (axonal protein synthesis) [1]: significantly increased puromycin incorporation | puromycin incorporation in DRG axons (axonal protein synthesis) ([1]; listed as 190-208 peptide): significant increase in axonal protein synthesis | OPP puncta density (axonal translation) (C9ORF72 iPS-MN axons): reversed
